Experimental data reported in ChEMBL document CHEMBL3813616, “Discovery of novel 7-azaindoles as PDK1 inhibitors” (Bioorg Med Chem Lett, 2016).

Assays:
Set-up in all cases: scale not given: the % may be the effect or the level left
[1] = target: Insulin-like growth factor 1 receptor (Homo sapiens) (UniProt P08069); test: Inhibition of human IGF1R (954 to 1367 residues) assessed as enzyme activity at 1 uM using 33P ATP by radioactive filter binding assay
[2] = target: Tyrosine-protein kinase Lck (Homo sapiens) (UniProt P06239); test: Inhibition of human LCK (2 to 509 residues) assessed as enzyme activity at 1 uM using 33P ATP by radioactive filter binding assay
Chain of Tyrosine-protein kinase Lck (Homo sapiens) (P06239 2-509 limits assumed): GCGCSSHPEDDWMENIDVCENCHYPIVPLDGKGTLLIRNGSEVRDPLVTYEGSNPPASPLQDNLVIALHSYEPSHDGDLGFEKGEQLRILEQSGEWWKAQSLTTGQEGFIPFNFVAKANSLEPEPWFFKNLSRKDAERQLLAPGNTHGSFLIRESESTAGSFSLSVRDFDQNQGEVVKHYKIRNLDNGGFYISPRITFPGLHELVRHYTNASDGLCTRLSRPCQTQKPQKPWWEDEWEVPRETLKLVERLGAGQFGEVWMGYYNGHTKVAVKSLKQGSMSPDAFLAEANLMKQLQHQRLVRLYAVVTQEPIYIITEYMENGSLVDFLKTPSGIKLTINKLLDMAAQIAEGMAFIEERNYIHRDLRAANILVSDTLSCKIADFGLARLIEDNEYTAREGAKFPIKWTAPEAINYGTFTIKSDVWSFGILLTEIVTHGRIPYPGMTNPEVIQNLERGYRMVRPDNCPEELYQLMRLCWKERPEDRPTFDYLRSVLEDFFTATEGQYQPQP

[3] = target: MAP kinase-activated protein kinase 2 (Homo sapiens) (UniProt P49137); test: Inhibition of human MAPKAPK2 (46 to 400 residues) assessed as enzyme activity at 1 uM using 33P ATP by radioactive filter binding assay
Chain of MAP kinase-activated protein kinase 2 (Homo sapiens) (P49137 whole entry, looked up, the tested form may be a part): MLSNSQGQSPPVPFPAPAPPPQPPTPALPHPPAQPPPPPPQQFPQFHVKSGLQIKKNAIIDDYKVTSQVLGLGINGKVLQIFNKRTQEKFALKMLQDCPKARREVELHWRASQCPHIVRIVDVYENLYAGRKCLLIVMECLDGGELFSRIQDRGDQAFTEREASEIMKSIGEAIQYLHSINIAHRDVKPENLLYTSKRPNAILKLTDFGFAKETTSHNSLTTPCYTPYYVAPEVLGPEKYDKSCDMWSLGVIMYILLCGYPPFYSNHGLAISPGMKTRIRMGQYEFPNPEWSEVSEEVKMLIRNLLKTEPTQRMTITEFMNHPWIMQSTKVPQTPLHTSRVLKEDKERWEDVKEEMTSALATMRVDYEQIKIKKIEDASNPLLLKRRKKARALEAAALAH

[4] = target: MAP/microtubule affinity-regulating kinase 3 (Homo sapiens) (UniProt P27448); test: Inhibition of human MARK3 (2 to 729 residues) assessed as enzyme activity at 1 uM using 33P ATP by radioactive filter binding assay
Chain of MAP/microtubule affinity-regulating kinase 3 (Homo sapiens) (P27448 whole entry, looked up, the tested form may be a part): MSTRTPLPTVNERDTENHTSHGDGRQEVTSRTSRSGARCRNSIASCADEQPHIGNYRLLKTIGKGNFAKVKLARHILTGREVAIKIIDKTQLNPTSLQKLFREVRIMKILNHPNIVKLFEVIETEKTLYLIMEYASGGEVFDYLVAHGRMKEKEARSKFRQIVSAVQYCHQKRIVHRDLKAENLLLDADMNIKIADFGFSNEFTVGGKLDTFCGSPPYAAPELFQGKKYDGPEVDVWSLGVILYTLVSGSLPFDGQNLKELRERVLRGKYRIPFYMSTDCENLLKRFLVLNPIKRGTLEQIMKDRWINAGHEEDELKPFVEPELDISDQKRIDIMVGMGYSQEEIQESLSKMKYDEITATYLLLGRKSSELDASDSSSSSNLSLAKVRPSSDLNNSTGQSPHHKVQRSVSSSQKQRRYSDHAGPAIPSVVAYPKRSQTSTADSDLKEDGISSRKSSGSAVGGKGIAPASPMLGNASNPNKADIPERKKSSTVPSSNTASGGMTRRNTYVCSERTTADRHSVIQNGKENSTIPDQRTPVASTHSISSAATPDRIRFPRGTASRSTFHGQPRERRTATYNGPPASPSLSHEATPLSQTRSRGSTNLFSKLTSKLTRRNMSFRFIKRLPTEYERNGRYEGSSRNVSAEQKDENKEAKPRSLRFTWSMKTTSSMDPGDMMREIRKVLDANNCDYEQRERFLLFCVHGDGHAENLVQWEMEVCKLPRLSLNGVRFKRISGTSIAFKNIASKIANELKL

[5] = target: Maternal embryonic leucine zipper kinase (Homo sapiens) (UniProt Q14680); test: Inhibition of human MELK (2 to 651 residues) assessed as enzyme activity at 1 uM using 33P ATP by radioactive filter binding assay
Chain of Maternal embryonic leucine zipper kinase (Homo sapiens) (Q14680 whole entry, looked up, the tested form may be a part): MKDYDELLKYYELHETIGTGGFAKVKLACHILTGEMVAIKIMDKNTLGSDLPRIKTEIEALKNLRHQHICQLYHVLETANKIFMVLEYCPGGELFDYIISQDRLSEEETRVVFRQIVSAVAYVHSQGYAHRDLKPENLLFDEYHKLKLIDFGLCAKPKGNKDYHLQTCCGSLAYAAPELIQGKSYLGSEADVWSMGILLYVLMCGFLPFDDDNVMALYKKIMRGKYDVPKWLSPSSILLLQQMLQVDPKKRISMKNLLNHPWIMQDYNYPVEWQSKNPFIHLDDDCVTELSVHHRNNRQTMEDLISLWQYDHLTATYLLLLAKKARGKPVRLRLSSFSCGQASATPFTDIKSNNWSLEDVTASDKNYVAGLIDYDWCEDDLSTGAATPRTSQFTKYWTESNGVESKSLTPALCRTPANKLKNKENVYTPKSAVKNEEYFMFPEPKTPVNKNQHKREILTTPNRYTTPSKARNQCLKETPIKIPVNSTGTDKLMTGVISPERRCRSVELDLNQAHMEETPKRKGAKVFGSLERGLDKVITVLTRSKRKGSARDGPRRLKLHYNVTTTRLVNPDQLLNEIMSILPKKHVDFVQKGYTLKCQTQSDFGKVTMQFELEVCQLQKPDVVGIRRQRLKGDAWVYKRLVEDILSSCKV

[6] = target: Dual specificity mitogen-activated protein kinase kinase 1 (Homo sapiens) (UniProt Q02750); test: Inhibition of human MKK1 (2 to 393 residues) assessed as enzyme activity at 1 uM using 33P ATP by radioactive filter binding assay
[7] = target: MAP kinase-interacting serine/threonine-protein kinase 1 (Homo sapiens) (UniProt Q9BUB5); test: Inhibition of human MNK1 (2 to 424 residues) assessed as enzyme activity at 1 uM using 33P ATP by radioactive filter binding assay
Chain of MAP kinase-interacting serine/threonine-protein kinase 1 (Homo sapiens) (Q9BUB5 whole entry, looked up, the tested form may be a part): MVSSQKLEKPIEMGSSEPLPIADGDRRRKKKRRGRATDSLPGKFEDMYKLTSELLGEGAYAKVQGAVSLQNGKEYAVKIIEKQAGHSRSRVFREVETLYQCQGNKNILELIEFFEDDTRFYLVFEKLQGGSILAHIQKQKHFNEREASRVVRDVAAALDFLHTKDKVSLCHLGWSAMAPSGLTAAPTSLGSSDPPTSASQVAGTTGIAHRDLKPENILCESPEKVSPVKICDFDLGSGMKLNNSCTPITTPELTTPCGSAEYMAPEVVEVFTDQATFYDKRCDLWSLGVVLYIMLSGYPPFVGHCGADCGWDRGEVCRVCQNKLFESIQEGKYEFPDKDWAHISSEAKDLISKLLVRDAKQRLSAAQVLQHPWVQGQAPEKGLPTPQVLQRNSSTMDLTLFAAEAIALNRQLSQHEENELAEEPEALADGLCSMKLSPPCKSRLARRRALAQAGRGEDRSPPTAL

[8] = target: Ribosomal protein S6 kinase alpha-5 (Homo sapiens) (UniProt O75582); test: Inhibition of human MSK1 (2 to 802 residues) assessed as enzyme activity at 1 uM using 33P ATP by radioactive filter binding assay
[9] = target: RAC-beta serine/threonine-protein kinase (Homo sapiens) (UniProt P31751); test: Inhibition of human PKBbeta (120 to 481 residues) assessed as enzyme activity at 1 uM using 33P ATP by radioactive filter binding assay
Chain of RAC-beta serine/threonine-protein kinase (Homo sapiens) (P31751 whole entry, the tested form may be a part): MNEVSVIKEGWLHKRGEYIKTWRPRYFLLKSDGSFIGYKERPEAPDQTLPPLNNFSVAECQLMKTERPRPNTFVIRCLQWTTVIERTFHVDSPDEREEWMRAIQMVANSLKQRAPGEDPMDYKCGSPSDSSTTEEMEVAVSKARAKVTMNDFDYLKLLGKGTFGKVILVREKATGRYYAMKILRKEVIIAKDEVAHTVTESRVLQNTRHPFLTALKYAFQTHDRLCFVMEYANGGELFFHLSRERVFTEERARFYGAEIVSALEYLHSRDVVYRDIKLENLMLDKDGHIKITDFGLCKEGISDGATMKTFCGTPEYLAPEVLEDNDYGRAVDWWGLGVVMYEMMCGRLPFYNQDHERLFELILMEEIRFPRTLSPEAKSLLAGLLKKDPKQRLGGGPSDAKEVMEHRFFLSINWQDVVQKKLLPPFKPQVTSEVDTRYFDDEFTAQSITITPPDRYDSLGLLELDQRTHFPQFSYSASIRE

[10] = target: Serine/threonine-protein kinase N2 (Homo sapiens) (UniProt Q16513); test: Inhibition of human PRK2 (501 to 984 residues) assessed as enzyme activity at 1 uM using 33P ATP by radioactive filter binding assay
Chain of Serine/threonine-protein kinase N2 (Homo sapiens) (Q16513 whole entry, looked up, the tested form may be a part): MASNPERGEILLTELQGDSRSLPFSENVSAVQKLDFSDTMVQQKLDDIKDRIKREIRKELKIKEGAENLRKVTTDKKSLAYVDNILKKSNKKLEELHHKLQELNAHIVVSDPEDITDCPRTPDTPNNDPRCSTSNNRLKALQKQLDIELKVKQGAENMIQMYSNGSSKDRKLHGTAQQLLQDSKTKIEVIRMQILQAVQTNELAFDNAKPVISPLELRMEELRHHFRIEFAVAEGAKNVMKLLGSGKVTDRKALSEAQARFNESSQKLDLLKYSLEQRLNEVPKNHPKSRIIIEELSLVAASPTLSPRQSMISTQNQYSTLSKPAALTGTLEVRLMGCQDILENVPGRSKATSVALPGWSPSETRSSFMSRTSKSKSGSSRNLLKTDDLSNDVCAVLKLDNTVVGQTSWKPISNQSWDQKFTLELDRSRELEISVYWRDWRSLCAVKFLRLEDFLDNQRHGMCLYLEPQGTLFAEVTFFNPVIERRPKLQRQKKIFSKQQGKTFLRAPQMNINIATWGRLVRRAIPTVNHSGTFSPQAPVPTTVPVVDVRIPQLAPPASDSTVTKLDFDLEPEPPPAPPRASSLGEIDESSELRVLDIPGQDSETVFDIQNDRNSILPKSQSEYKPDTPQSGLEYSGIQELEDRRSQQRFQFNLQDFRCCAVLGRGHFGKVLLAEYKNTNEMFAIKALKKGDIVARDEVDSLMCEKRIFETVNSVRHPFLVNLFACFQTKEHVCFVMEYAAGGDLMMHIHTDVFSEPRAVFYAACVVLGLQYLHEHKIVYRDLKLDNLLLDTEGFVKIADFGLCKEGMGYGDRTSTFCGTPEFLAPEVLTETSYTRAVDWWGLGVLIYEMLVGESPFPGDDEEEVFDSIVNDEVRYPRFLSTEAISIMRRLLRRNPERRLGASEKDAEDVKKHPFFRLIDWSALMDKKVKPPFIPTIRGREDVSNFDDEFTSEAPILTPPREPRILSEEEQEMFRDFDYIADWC

[11] = target: T1, Serine/threonine-protein kinase TBK1 (Homo sapiens) (UniProt Q9UHD2); test: Inhibition of human TBK1 (1 to 729 residues) assessed as enzyme activity at 1 uM using 33P ATP by radioactive filter binding assay
T1 sequence (whole entry): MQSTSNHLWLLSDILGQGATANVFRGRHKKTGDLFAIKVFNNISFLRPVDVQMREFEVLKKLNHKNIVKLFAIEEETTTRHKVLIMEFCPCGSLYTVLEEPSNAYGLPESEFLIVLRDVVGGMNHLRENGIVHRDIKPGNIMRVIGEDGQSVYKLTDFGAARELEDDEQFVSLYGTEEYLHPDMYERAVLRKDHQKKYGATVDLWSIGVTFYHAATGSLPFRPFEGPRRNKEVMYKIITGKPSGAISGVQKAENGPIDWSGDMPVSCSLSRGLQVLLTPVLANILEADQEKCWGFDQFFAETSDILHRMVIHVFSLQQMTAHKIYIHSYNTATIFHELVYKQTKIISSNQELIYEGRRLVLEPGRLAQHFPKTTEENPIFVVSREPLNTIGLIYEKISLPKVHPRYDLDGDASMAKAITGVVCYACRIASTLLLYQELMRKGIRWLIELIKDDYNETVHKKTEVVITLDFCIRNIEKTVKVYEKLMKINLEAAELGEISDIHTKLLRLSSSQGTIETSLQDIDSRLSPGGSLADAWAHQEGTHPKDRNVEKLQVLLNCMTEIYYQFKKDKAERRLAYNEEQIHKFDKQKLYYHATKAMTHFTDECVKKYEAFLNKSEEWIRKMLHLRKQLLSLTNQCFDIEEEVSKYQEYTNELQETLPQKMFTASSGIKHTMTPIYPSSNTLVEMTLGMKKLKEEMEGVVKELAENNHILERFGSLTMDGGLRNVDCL

[12] = target: T2, Eukaryotic elongation factor 2 kinase (Homo sapiens) (UniProt O00418); test: Inhibition of human EF2K (2 to 725 residues) assessed as enzyme activity at 1 uM using 33P ATP by radioactive filter binding assay
T2 sequence (whole entry): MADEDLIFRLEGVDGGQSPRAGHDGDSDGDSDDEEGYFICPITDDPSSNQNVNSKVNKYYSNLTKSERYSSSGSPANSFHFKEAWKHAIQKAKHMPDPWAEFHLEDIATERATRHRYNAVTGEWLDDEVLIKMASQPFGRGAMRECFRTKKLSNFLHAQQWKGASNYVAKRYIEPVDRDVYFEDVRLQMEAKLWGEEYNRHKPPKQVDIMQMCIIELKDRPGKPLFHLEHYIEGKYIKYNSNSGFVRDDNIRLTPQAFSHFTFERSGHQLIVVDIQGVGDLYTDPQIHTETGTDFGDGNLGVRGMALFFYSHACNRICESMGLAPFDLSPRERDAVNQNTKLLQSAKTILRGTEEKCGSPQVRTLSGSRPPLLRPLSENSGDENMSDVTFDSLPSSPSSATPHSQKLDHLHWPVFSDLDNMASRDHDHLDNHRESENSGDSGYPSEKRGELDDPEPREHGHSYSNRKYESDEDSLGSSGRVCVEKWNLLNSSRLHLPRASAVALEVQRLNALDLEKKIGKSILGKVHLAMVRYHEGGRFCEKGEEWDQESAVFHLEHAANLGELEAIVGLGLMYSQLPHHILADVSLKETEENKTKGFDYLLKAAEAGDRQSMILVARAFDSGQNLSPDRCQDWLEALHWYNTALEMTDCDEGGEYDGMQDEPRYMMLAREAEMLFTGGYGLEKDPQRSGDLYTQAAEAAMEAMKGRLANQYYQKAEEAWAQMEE

[13] = target: Fibroblast growth factor receptor 1 (Homo sapiens) (UniProt P11362); test: Inhibition of human FGFR1 (400 to 820 residues) assessed as enzyme activity at 1 uM using 33P ATP by radioactive filter binding assay
Chain of Fibroblast growth factor receptor 1 (Homo sapiens) (P11362 22-822 limits assumed): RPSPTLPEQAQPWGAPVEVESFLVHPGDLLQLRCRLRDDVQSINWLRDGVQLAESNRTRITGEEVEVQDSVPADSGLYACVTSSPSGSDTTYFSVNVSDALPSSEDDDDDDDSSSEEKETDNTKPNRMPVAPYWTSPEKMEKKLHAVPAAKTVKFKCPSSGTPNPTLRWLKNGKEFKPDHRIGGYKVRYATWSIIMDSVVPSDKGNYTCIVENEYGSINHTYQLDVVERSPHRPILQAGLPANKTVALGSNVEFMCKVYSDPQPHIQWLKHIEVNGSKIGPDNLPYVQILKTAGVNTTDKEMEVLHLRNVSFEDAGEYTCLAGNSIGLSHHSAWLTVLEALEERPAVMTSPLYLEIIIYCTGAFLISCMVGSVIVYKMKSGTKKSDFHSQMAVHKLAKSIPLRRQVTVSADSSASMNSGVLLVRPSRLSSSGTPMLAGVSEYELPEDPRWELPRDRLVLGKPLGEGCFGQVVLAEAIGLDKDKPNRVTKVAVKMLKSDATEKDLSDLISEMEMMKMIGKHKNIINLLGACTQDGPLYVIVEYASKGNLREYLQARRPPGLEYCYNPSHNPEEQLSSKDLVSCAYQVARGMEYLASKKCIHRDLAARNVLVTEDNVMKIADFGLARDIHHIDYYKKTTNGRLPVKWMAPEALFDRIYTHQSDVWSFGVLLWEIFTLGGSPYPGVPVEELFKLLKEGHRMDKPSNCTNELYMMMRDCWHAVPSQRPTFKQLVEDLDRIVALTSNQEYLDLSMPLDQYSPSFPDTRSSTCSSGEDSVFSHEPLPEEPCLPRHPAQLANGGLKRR

Compound	Activity [1] [%]	Activity [2] [%]	Activity [3] [%]	Activity [4] [%]	Activity [5] [%]	Activity [6] [%]	Activity [7] [%]	Activity [8] [%]	Activity [9] [%]	Activity [10] [%]	Activity [11] [%]	Activity [12] [%]	Activity [13] [%]
CCc1cc(-c2c[nH]c3ncc(-c4cnn(C5CCNCC5)c4)cc23)nc(N)n1	-34	-95	-3	-89	-81	-77	-46	-43	3	-86	-65	3	-79
CCCCc1cc(-c2c[nH]c3ncc(-c4cnn(C5CCNCC5)c4)cc23)nc(N)n1	-27	-99	-23	-95	-85	-82	-59	-56	-21	-94	-93	-31	-80
CCCCc1cc(-c2c[nH]c3ncccc23)nc(N)n1	–	-5	13	-58	-89	-21	-23	-46	-3	-63	-37	-1	3
Nc1nccc(-c2c[nH]c3ncccc23)n1 [MERIOLIN 1]	-2	-9	-8	-59	-64	-67	-15	-49	-9	-73	-17	-20	-8
